In PMC11945486, “TAS1R2/TAS1R3 Single-Nucleotide Polymorphisms Affect Sweet Taste Receptor Activation by Sweeteners: The SWEET Project” (Nutrients, 2025):

Molecular target: T1, human TAS1R2-I234V (subunit alone) (Homo sapiens, UniProt Q8TE23, I234V)
T1 construct: expressed in transfected cells; host or cells: HEK293T-Gα16gust44
T1 sequence (Q8TE23 20-839 I234V): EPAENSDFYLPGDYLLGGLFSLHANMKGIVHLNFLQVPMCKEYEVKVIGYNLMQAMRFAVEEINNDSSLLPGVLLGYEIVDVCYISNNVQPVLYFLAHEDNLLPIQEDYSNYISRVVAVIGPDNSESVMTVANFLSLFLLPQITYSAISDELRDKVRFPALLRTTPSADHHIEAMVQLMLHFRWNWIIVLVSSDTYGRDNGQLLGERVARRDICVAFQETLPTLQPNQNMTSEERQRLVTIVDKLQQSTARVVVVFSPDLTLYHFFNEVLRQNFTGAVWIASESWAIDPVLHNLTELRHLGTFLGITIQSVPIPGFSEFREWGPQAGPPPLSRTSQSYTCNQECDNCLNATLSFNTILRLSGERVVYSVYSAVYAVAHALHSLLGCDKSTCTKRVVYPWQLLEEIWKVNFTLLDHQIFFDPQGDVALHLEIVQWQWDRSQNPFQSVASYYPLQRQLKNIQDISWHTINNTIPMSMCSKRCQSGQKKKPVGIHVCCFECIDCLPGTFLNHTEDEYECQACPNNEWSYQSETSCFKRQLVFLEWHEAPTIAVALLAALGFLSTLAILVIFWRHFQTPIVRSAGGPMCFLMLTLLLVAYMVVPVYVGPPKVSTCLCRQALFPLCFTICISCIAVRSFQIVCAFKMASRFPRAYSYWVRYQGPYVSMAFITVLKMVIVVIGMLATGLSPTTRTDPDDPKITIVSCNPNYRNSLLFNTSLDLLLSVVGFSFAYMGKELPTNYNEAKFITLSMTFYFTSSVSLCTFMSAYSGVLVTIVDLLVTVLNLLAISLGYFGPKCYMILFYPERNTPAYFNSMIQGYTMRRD
Assay: Calcium mobilisation assay, TAS1R2-I234V subunit alone
Type: cell-based
Source text: The coding sequences for TAS1R2 and TAS1R3 were commercially synthesised, and the human codon was optimised for expression in human cells. The coding sequences of human TAS1R2 and TAS1R3 were subcloned and inserted into the mammalian expression vectors pcDNA6/myc-HisA and pcDNA4/myc-HisA (Invitrogen; Thermo Fisher Scientific; Illkirch, France) between the EcoRI and NotI restriction sites, generating the plasmids pcDNA6-TAS1R2 and pcDNA4-TAS1R3, respectively. To increase protein expression in mammalian cells, an upstream start codon was used, which was a sequence called MAX, corresponding to the QBI SP163 element also described in pcDNA4-HisMax (Invitrogen; Thermo Fisher Scientific; Illkirch, France). To measure the expression level of the receptor by immunohistochemistry, we used the FLAG sequence ([…]) in the C-terminal position, which encodes the FLAG tag epitope. […]
The HEK293T cells were kindly provided by Jay P. Slack (Givaudan Flavors Corporation; Cincinnati, OH, USA). […] The fluorescence intensity was measured for 90 s (excitation 488 nm, emission 510 nm) in an automated fluorometric FlexStation®3 Multi-Mode microplate reader (Molecular Devices; San Jose, CA, USA). […] The Ca^2+ changes were expressed as fractional changes in fluorescent light intensity: ΔF/F = (F − F0)/F0, where F was the fluorescent light intensity at each point, and F0 was the value of emitted fluorescent light prior to stimulus application. To calculate dose–response relationships, the changes in fluorescence upon stimulus application were averaged, mock-subtracted and baseline-corrected. […] The half-maximal effective concentrations (EC50 values) and maximal signal amplitudes were calculated using SigmaPlot software (version 15.0) (Systat Software; San Jose, CA, USA).
For in vitro calcium mobilisation assay performed on hTAS1R2-SNPs, hTAS1R3-SNPs and mTAS1R3-I60T, 6 to 7 concentrations were tested for each sweet compound, plus buffer alone. All concentration–receptor combinations were measured in duplicate, and each experiment was repeated at least 4 times (8 wells/concentration). […]

- EC50: 311 ± 24.6 µM
- R1 = Variant EC50/WT EC50: 3.5
- Max ΔF/F0 (maximal signal amplitude): 0.29 ± 0.01
SMILES: C=C(C)[C@@H]1CC=C(/C=N/O)CC1 [Perillartine, perillartine]
